The record followed here is patent US9447136B2, “Semisynthetic derivatives of Nystatin A1” (BLIRT S.A., priority 2012, dated 2016).

Data set [1] deals with Candida albicans ATCC 10231. Nature of the data set: Antifungal activity in vitro, serial dilution in RPMI 1640. The class given is cell-based. The note with it: Table 2A, RPMI 1640, pH 7.0; for Antifungal activity Candida albicans ATCC 10231 IC50: A531 50% of control; for Antifungal activity Candida albicans ATCC 10231 MIC: A531 at most 20% of control. As to the method: (§1) For the determination of antifungal activity in vitro we used method of serial dilution in buffered medium RPMI 1640, pH 7.0, in a 96-wells microplates, according to the standard procedure (National Committee for Clinical Laboratory Standards. Reference method for broth dilution antifungal susceptibility testing of yeast, approved standard, 2nd ed. M27-A2 vol. 22 Wayne, Pa., 2002). The optical density of cells suspension was measured using a microplates reader (Victor^3, Perkin-Elmer) at the wavelength λ=531 nm (A531). On the basis of obtained results the diagrams of relation between A531 values and concentration of examined compound were made. From these graphs, the IC50 values were read, which were the interpolated concentrations of a tested compound, at which the A531 value was exactly 50% of the A531 value for the control sample. Moreover, MIC values, that are the lowest concentration of tested compound at which the A531 value were at most 20% of the A531 value measured for the control sample.

The test system of data set [2] is Candida glabrata DSM 11226. The description is as above. The class given is cell-based. The following applies: Table 2A; RPMI 1640, pH 7.0. Here is the method: as §1
The next data set deals with Candida krusei DSM 6128. Described as above. It is filed as cell-based. The following applies: Table 2A; RPMI 1640, pH 7.0. As to the method:
as §1

Data set [3] relates to Candida lusitaniae DSM 70102. The description is as above. It is filed as cell-based. The note with it: Table 2A; RPMI 1640, pH 7.0. As to the method: as §1
The subject of data set [4] is Candida tropicalis KKP 334. Described as above. The note with it: Table 2A; RPMI 1640, pH 7.0. The class given is cell-based. Here is the method:
as §1

Data set [5] concerns Saccharomyces cerevisiae ATCC 9763. Described as above. It is filed as cell-based. The following applies: Table 2A; RPMI 1640, pH 7.0; A531 at most 20% of control. Here is the method: as §1
The test system of the next data set is Human erythrocytes. The data set can be described thus: Hemotoxicity (hemolytic activity). As to the method: The hemotoxicity determination were carried out by the serial dilutions method, according to the procedure described earlier (Ślisz, M., et al., E., J Antibiot 57: 669-678 (2004)). Human erythrocytes were suspensed in the solution of saline to obtain a cell density of suspension 2×10^7/ml. Suitable amounts of diluted solutions of compounds were added to the cell suspension in tubes and were incubated at 37° C. for 30 minutes and then centrifuged (1700×g, 10 min, 4° C.). The concentration of hemoglobin in supernatant after centrifugation of erythrocytes suspension were determined by measuring the absorbance at wavelength λ=540 nm (A540). The maximum level of hemolysis was obtained after incubation of cells suspension in the presence of 0.1% Tritone X-100 (control sample). […] From these graphs, the EH50 values were read which are the interpolated concentrations of compound, for which the A540 value is exactly 50% of the A540 value measured for the control sample.

Where two headings read alike, the source gives them in different places.

With `CC1OC(O[C@H]2/C=C/C=C/C=C/C=C/CC/C=C/C=C/[C@H](C)[C@@H](O)[C@@H](C)[C@H](C)OC(=O)C[C@H](O)C[C@H](O)C[C@H](O)CC[C@@H](O)[C@H](O)CC3(O)C[C@H](O)[C@@H](C(=O)O)[C@H](C2)O3)C(O)C(NC2CC(=O)N(CCN3CCCCC3)C2=O)C1O` (stereo partly drawn) [Compound N8, N—[N′-2-(piperidin-1-yl)ethylsuccinimidyl]nystatin A1], in data set [1], the “Antifungal activity Candida albicans ATCC 10231 IC50” value stood at 1.54 µg/mL and the “Antifungal activity Candida albicans ATCC 10231 MIC” value amounted to 2 µg/mL. Further, in data set [2], the “Antifungal activity Candida glabrata DSM 11226 MIC” value was 4 µg/mL. For the same compound, the “Antifungal activity Candida krusei DSM 6128 MIC” value with Candida krusei DSM 6128 was 4 µg/mL. For the same compound, in data set [3], the “Antifungal activity Candida lusitaniae DSM 70102 MIC” value is 2 µg/mL. Besides, the “Antifungal activity Candida tropicalis KKP 334 MIC” value in data set [4] came out at 2 µg/mL. Also, the “Antifungal activity Saccharomyces cerevisiae ATCC 9763 MIC” value in data set [5] worked out at 2 µg/mL. This compound also came in with an EH10 in the data set with Human erythrocytes (human erythrocytes, concentration causing 10% of hemolysis) of 150.73 µg/mL.
For `C[C@@H]1[C@H](O)[C@@H](C)/C=C/C=C/CC/C=C/C=C/C=C/C=C/[C@H](O[C@@H]2O[C@H](C)[C@@H](O)[C@H](NC(=S)NCCN(C)C)[C@@H]2O)C[C@@H]2O[C@](O)(C[C@@H](O)C[C@@H](O)[C@H](O)CC[C@@H](O)C[C@@H](O)CC(=O)O[C@H]1C)C[C@H](O)[C@H]2C(=O)O` [Compound N18, N-{3-[2-(N,N-dimethylamino)ethyl]thioureidyl}nystatin A1], in data set [1], the “Antifungal activity Candida albicans ATCC 10231 IC50” value was found to be 2.97 µg/mL and the “Antifungal activity Candida albicans ATCC 10231 MIC” value was 4 µg/mL. The “Antifungal activity Candida glabrata DSM 11226 MIC” value in data set [2] came to 8 µg/mL. Moreover, the “Antifungal activity Candida krusei DSM 6128 MIC” value in the data set on Candida krusei DSM 6128 is 8 µg/mL. The “Antifungal activity Candida lusitaniae DSM 70102 MIC” value in data set [3] amounted to 4 µg/mL. In data set [4], the “Antifungal activity Candida tropicalis KKP 334 MIC” value is 4 µg/mL. The “Antifungal activity Saccharomyces cerevisiae ATCC 9763 MIC” value in data set [5] came out at 4 µg/mL.
`C[C@@H]1[C@H](O)[C@@H](C)/C=C/C=C/CC/C=C/C=C/C=C/C=C/[C@H](O[C@@H]2O[C@H](C)[C@@H](O)[C@H](N(C)C)[C@@H]2O)C[C@@H]2O[C@](O)(C[C@@H](O)C[C@@H](O)[C@H](O)CC[C@@H](O)C[C@@H](O)CC(=O)O[C@H]1C)C[C@H](O)[C@H]2C(=O)O` [Compound N23, N,N-dimethylnystatin A1]: in data set [1], the “Antifungal activity Candida albicans ATCC 10231 IC50” value came out at 2.47 µg/mL and the “Antifungal activity Candida albicans ATCC 10231 MIC” value amounted to 4 µg/mL. Besides, the “Antifungal activity Candida glabrata DSM 11226 MIC” value in data set [2] was 8 µg/mL. Also, in the data set with Candida krusei DSM 6128, the “Antifungal activity Candida krusei DSM 6128 MIC” value was 8 µg/mL. Moreover, the “Antifungal activity Candida lusitaniae DSM 70102 MIC” value in data set [3] was 2 µg/mL. Further, in data set [4], the “Antifungal activity Candida tropicalis KKP 334 MIC” value came out at 4 µg/mL. For the same compound, the “Antifungal activity Saccharomyces cerevisiae ATCC 9763 MIC” value in data set [5] turned out to be 4 µg/mL. The compound further came in with an EH10 in the data set with Human erythrocytes of 214.20 µg/mL.
With `CCN(CC1(O)OCC(O)C(O)C1O)C1C(O)C(C)OC(OC2C=CC=CC=CC=CCCC=CC=CC(C)C(O)C(C)C(C)OC(=O)CC(O)CC(O)CC(O)CCC(O)C(O)CC3(O)CC(O)C(C(=O)O)C(C2)O3)C1O` (stereo not drawn) [Compound N29, N-fructosyl-N-ethylnystatin A1], in data set [1], the “Antifungal activity Candida albicans ATCC 10231 IC50” value came to 3.56 µg/mL and the “Antifungal activity Candida albicans ATCC 10231 MIC” value is 8 µg/mL. Further, in data set [2], the “Antifungal activity Candida glabrata DSM 11226 MIC” value is 16 µg/mL. The “Antifungal activity Candida krusei DSM 6128 MIC” value in the data set on Candida krusei DSM 6128 is 16 µg/mL. For the same compound, the “Antifungal activity Candida lusitaniae DSM 70102 MIC” value in data set [3] was 8 µg/mL. In data set [4], the “Antifungal activity Candida tropicalis KKP 334 MIC” value was 8 µg/mL. In data set [5], the “Antifungal activity Saccharomyces cerevisiae ATCC 9763 MIC” value was 8 µg/mL.
With `CC1C=CC=CCCC=CC=CC=CC=CC(OC2OC(C)C(O)C(N(CCCN(C)C)CC3(O)OCC(O)C(O)C3O)C2O)CC2OC(O)(CC(O)C(O)CCC(O)CC(O)CC(O)CC(=O)OC(C)C(C)C1O)CC(O)C2C(=O)O` (stereo not drawn) [Compound N30, N-fructosyl-N-[3-(N′,N′-dimethylamin)propyl]nystatin A1], in data set [1], the “Antifungal activity Candida albicans ATCC 10231 IC50” value worked out at 5.79 µg/mL and the “Antifungal activity Candida albicans ATCC 10231 MIC” value is 8 µg/mL. Also, the “Antifungal activity Candida glabrata DSM 11226 MIC” value in data set [2] worked out at 16 µg/mL. In addition, the “Antifungal activity Candida krusei DSM 6128 MIC” value in the data set with Candida krusei DSM 6128 turned out to be 16 µg/mL. Also, the “Antifungal activity Candida lusitaniae DSM 70102 MIC” value in data set [3] worked out at 8 µg/mL. In addition, the “Antifungal activity Candida tropicalis KKP 334 MIC” value in data set [4] was 16 µg/mL. Besides, the “Antifungal activity Saccharomyces cerevisiae ATCC 9763 MIC” value in data set [5] worked out at 8 µg/mL.
For N,N-diethylnystatin A1 [Compound N24], in data set [1], the “Antifungal activity Candida albicans ATCC 10231 IC50” value came to 3.82 µg/mL and the “Antifungal activity Candida albicans ATCC 10231 MIC” value was 8 µg/mL. In addition, the “Antifungal activity Candida glabrata DSM 11226 MIC” value in data set [2] turned out to be 16 µg/mL. In the data set on Candida krusei DSM 6128, the “Antifungal activity Candida krusei DSM 6128 MIC” value was 16 µg/mL. The “Antifungal activity Candida lusitaniae DSM 70102 MIC” value in data set [3] was found to be 4 µg/mL. In data set [4], the “Antifungal activity Candida tropicalis KKP 334 MIC” value was found to be 8 µg/mL. In data set [5], the “Antifungal activity Saccharomyces cerevisiae ATCC 9763 MIC” value worked out at 8 µg/mL.
Turning to “N-{3-[2-(morpholin-1-yl)ethyl]thioureidyl}nystatin A1 [Compound N13]”, in data set [1], the “Antifungal activity Candida albicans ATCC 10231 IC50” value was 3.88 µg/mL and the “Antifungal activity Candida albicans ATCC 10231 MIC” value was determined as 8 µg/mL. The “Antifungal activity Candida glabrata DSM 11226 MIC” value in data set [2] amounted to 16 µg/mL. In addition, the “Antifungal activity Candida krusei DSM 6128 MIC” value with Candida krusei DSM 6128 was 16 µg/mL. The “Antifungal activity Candida lusitaniae DSM 70102 MIC” value in data set [3] was found to be 8 µg/mL. In addition, the “Antifungal activity Candida tropicalis KKP 334 MIC” value in data set [4] was 8 µg/mL. The “Antifungal activity Saccharomyces cerevisiae ATCC 9763 MIC” value in data set [5] worked out at 8 µg/mL.
For the compound “N-{3-[2-(piperidin-1-yl)ethyl]thioureidyl}nystatin A1 [Compound N12]”, in data set [1], the “Antifungal activity Candida albicans ATCC 10231 IC50” value was found to be 4.20 µg/mL and the “Antifungal activity Candida albicans ATCC 10231 MIC” value worked out at 8 µg/mL. The “Antifungal activity Candida glabrata DSM 11226 MIC” value in data set [2] was found to be 8 µg/mL. Moreover, the “Antifungal activity Candida krusei DSM 6128 MIC” value with Candida krusei DSM 6128 was determined as 16 µg/mL. The “Antifungal activity Candida lusitaniae DSM 70102 MIC” value in data set [3] came out at 4 µg/mL. Moreover, the “Antifungal activity Candida tropicalis KKP 334 MIC” value in data set [4] came out at 8 µg/mL. Moreover, the “Antifungal activity Saccharomyces cerevisiae ATCC 9763 MIC” value in data set [5] was found to be 8 µg/mL.
For “N-{3-[3-(imidazo-1-yl)propyl]thioureidyl}nystatin A1 [Compound N20]”, in data set [1], the “Antifungal activity Candida albicans ATCC 10231 IC50” value was 6.47 µg/mL and the “Antifungal activity Candida albicans ATCC 10231 MIC” value worked out at 8 µg/mL. Further, the “Antifungal activity Candida glabrata DSM 11226 MIC” value in data set [2] worked out at 16 µg/mL. The “Antifungal activity Candida krusei DSM 6128 MIC” value in the data set with Candida krusei DSM 6128 worked out at 16 µg/mL. Moreover, the “Antifungal activity Candida lusitaniae DSM 70102 MIC” value in data set [3] was found to be 8 µg/mL. Also, in data set [4], the “Antifungal activity Candida tropicalis KKP 334 MIC” value was determined as 8 µg/mL. Besides, in data set [5], the “Antifungal activity Saccharomyces cerevisiae ATCC 9763 MIC” value was 8 µg/mL.
For the compound “N—[N′-2-(pyrrolidin-1-yl)ethylsuccinimidyl]nystatin A1 [Compound N11]”, in data set [1], the “Antifungal activity Candida albicans ATCC 10231 IC50” value worked out at 3.91 µg/mL and the “Antifungal activity Candida albicans ATCC 10231 MIC” value stood at 8 µg/mL. Moreover, the “Antifungal activity Candida glabrata DSM 11226 MIC” value in data set [2] worked out at 8 µg/mL. In addition, in the data set on Candida krusei DSM 6128, the “Antifungal activity Candida krusei DSM 6128 MIC” value was found to be 8 µg/mL. Moreover, the “Antifungal activity Candida lusitaniae DSM 70102 MIC” value in data set [3] amounted to 4 µg/mL. The “Antifungal activity Candida tropicalis KKP 334 MIC” value in data set [4] amounted to 8 µg/mL. In addition, in data set [5], the “Antifungal activity Saccharomyces cerevisiae ATCC 9763 MIC” value is 8 µg/mL.
